Patent US20230040770A1, “HETEROCYCLIC COMPOUND AND USE THEREOF” (TAKEDA PHARMACEUTICAL COMPANY LIMITED, priority 2019, published 2023)

Target: T1, human orexin type 2 receptor (Homo sapiens, UniProt O43614)
T1 construct: expressed in transfected cells
T1 sequence (O43614 1-444): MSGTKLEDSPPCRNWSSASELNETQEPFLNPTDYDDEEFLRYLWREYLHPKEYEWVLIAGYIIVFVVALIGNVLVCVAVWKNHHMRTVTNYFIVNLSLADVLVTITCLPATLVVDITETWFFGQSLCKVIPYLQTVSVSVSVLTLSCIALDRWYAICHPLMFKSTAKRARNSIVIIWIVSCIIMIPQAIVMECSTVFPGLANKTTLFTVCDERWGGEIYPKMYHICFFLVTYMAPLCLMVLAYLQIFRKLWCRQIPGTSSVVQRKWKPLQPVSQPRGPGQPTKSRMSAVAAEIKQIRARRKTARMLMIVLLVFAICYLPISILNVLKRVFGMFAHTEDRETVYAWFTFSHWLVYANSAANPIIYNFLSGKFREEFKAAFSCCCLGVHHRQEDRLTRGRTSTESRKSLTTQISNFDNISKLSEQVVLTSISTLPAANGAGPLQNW
Experiment: Measurement of orexin type 2 receptor agonist activity (calcium indicator fluorescence, CHO cells forcibly expressing human OX2 receptor)
Assay type: cell-based
Conditions: compound at 3 μM; 0% = DMSO, 100% = orexin A (human) 10 nM
Summary of the method: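 CHO-dhfr cells stably expressing human OX2R, loaded with Fluo-4 AM (30 min 37 °C, then 30 min RT), then given test compound. Calcium fluorescence read by FDSS over ~2 min. Activity (%) scaled from DMSO (0%) to 10 nM final orexin A (100%).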

Row | OX2R agonist activity (3 μM, %) | Structure (SMILES)
1 | 98% | CCS(=O)(=O)N[C@@H]1[C@H](Cc2cccc(-c3cccc(F)c3F)c2F)N(C(=O)C2CC(F)C2)CC1(F)F (stereo partly drawn) [Example 349, N-{(2S,3R)-4,4-difluoro-1-(3-fluorocyclobutane-1-carbonyl)-2-[(2,2′,3′-trifluoro[1,1′-biphenyl]-3-yl)methyl]pyrrolidin-3-yl}ethanesulfonamide]
2 | 101% | Cc1cccc(-c2cccc(C[C@H]3[C@@H](NS(=O)(=O)N(C)C)C(F)(F)CN3C(=O)C3CCO3)c2F)c1 (stereo partly drawn) [Example 434, N′-[(2S,3R)-4,4-difluoro-2-[(2-fluoro-3′-methyl[1,1′-biphenyl]-3-yl)methyl]-1-(oxetane-2-carbonyl)pyrrolidin-3-yl]-N,N-dimethylsulfuric diamide]
3 | 94% | CC(C)(O)C(=O)N1C[C@H](F)[C@H](NS(=O)(=O)C2CC2)[C@@H]1Cc1cccc(-c2cccc(F)c2F)c1F [Example 371, N-{(2S,3R,4S)-4-fluoro-1-(2-hydroxy-2-methylpropanoyl)-2-[(2,2′,3′-trifluoro[1,1′-biphenyl]-3-yl)methyl]pyrrolidin-3-yl}cyclopropanesulfonamide]
4 | 98% | CCS(=O)(=O)N[C@H]1[C@@H](F)CN(C(=O)C2CC2)[C@H]1Cc1cccc(-c2ccccc2F)c1F [Example 518, N-{(2S,3R,4S)-1-(cyclopropanecarbonyl)-2-[(2,2′-difluoro[1,1′-biphenyl]-3-yl)methyl]-4-fluoropyrrolidin-3-yl}ethanesulfonamide]
5 | 96% | CCS(=O)(=O)N[C@@H]1[C@H](Cc2cccc(-c3ccc(F)c(C)c3F)c2F)N(C(=O)C2CCO2)CC1(F)F (stereo partly drawn) [Example 474, N-{(2S,3R)-4,4-difluoro-1-(oxetane-2-carbonyl)-2-[(2,2′,4′-trifluoro-3′-methyl[1,1′-biphenyl]-3-yl)methyl]pyrroldiin-3-yl}ethanesulfonamide]
6 | 95% | CCS(=O)(=O)N[C@@H]1[C@H](Cc2cccc(-c3cc(C)cc(F)c3)c2F)N(C(=O)N(C)C)CC1(F)F [Example 447, (2S,3R)-2-[(2,3′-difluoro-5′-methyl[1,1′-biphenyl]-3-yl)methyl]-3-[(ethanesulfonyl)amino]-4,4-difluoro-N,N-dimethylpyrrolidine-1-carboxamide]
7 | 93% | O=C(C1CCO1)N1C[C@H](F)[C@H](NS(=O)(=O)C2CC2)[C@@H]1Cc1cccc(-c2cc(F)cc(F)c2)c1F (stereo partly drawn) [Example 479, N-{(2S,3R,4S)-4-fluoro-1-(oxetane-2-carbonyl)-2-[(2,3′,5′-trifluoro[1,1′-biphenyl]-3-yl)methyl]pyrrolidin-3-yl}cyclopropanesulfonamide]
8 | 89% | O=C(C1CCO1)N1CC(F)(F)[C@H](NS(=O)(=O)C2CC2)[C@@H]1Cc1cccc(-c2ccccc2)c1F (stereo partly drawn) [Example 124, N-[(2S,3R)-4,4-difluoro-2-[(2-fluoro[1,1′-biphenyl]-3-yl)methyl]-1-(oxetane-2-carbonyl)pyrrolidin-3-yl]cyclopropanesulfonamide]
9 | 85% | CN(C)C(=O)N1C[C@H](F)[C@H](NS(=O)(=O)C2CC2)[C@@H]1Cc1cccc(-c2cccc(F)c2)c1F [Example 387, (2S,3R,4S)-3-[(cyclopropanesulfonyl)amino]-2-[(2,3′-difluoro[1,1′-biphenyl]-3-yl)methyl]-4-fluoro-N,N-dimethylpyrrolidine-1-carboxamide]
10 | 104% | CS(=O)(=O)N[C@@H]1[C@H](Cc2cccc(-c3ccccc3)c2F)N(C(=O)[C@H]2CCCO2)CC1(F)F [Example 73, N-{(2S,3R)-4,4-difluoro-2-[(2-fluoro[1,1′-biphenyl]-3-yl)methyl]-1-[(2R)-oxolane-2-carbonyl]pyrrolidin-3-yl}methanesulfonamide]
11 | 80% | CCS(=O)(=O)N[C@@H]1[C@H](Cc2cccc(-c3cccc(C(F)F)c3)c2F)N(C(=O)[C@H]2CCCO2)CC1(F)F [Example 457, N-{(2S,3R)-2-{[3′-(difluoromethyl)-2-fluoro[1,1′-biphenyl]-3-yl]methyl}-4,4-difluoro-1-[(2R)-oxolane-2-carbonyl]pyrrolidin-3-yl}ethanesulfonamide]
12 | 97% | CCS(=O)(=O)N[C@@H]1[C@H](Cc2cccc(-c3cc(F)c(F)c(F)c3)c2F)N(C(=O)C2CCO2)CC1(F)F (stereo partly drawn) [Example 473, N-{(2S,3R)-4,4-difluoro-1-(oxetane-2-carbonyl)-2-[(2,3′,4′,5′-tetrafluoro[1,1′-biphenyl]-3-yl)methyl]pyrrolidin-3-yl}ethanesulfonamide]

The remaining lines, values behind:

Row | Structure (SMILES) | OX2R agonist activity (3 μM, %)
13 | Cc1cccc(-c2cccc(C[C@H]3[C@@H](NS(=O)(=O)N(C)C)C(F)(F)CN3C(=O)N3CCC3)c2F)c1F [Example 545, N′-{(2S,3R)-1-(azetidine-1-carbonyl)-2-[(2,2′-difluoro-3′-methyl[1,1′-biphenyl]-3-yl)methyl]-4,4-difluoropyrrolidin-3-yl}-N,N-dimethylsulfuric diamide] | 93%
14 | CCS(=O)(=O)N[C@@H]1[C@H](Cc2cccc(-c3cc(F)ccc3F)c2F)N(C(=O)C2CCO2)CC1(F)F (stereo partly drawn) [Example 356, N-{(2S,3R)-4,4-difluoro-1-(oxetane-2-carbonyl)-2-[(2,2′,5′-trifluoro[1,1′-biphenyl]-3-yl)methyl]pyrrolidin-3-yl}ethanesulfonamide] | 97%
15 | O=C(N1CCC1)N1CC(F)(F)[C@H](NS(=O)(=O)C2CC2)[C@@H]1Cc1cccc(-c2cccc(F)c2)c1F [Example 534, N-{(2S,3R)-1-(azetidine-1-carbonyl)-2-[(2,3′-difluoro[1,1′-biphenyl]-3-yl)methyl]-4,4-difluoropyrrolidin-3-yl}cyclopropanesulfonamide] | 98%
16 | CCS(=O)(=O)N[C@H]1[C@@H](F)CN(C(=O)C2CC2)[C@H]1Cc1cccc(-c2cccc(C)c2)c1F [Example 514, N-{(2S,3R,4S)-1-(cyclopropanecarbonyl)-4-fluoro-2-[(2-fluoro-3′-methyl[1,1′-biphenyl]-3-yl)methyl]pyrrolidin-3-yl}ethanesulfonamide] | 95%
17 | O=C(C1CCO1)N1CC(F)(F)[C@H](NS(=O)(=O)C2CC2)[C@@H]1Cc1cccc(-c2cc(F)cc(F)c2)c1F (stereo partly drawn) [Example 162, N-{(2S,3R)-4,4-difluoro-1-(oxetane-2-carbonyl)-2-[(2,3′,5′-trifluoro[1,1′-biphenyl]-3-yl)methyl]pyrrolidin-3-yl}cyclopropanesulfonamide] | 92%
18 | CCS(=O)(=O)N[C@@H]1[C@H](Cc2cccc(-c3cc(Cl)ccc3F)c2F)N(C(=O)C2CC2)CC1(F)F [Example 251, N-[(2S,3R)-2-[(5′-chloro-2,2′-difluoro[1,1′-biphenyl]-3-yl)methyl]-1-(cyclopropanecarbonyl)-4,4-difluoropyrrolidin-3-yl]ethanesulfonamide] | 91%
19 | CCS(=O)(=O)N[C@H]1[C@@H](F)CN(C(=O)C2CCO2)[C@H]1Cc1cccc(-c2cccc(Cl)c2)c1F (stereo partly drawn) [Example 368, N-[(2S,3R,4S)-2-[(3′-chloro-2-fluoro[1,1′-biphenyl]-3-yl)methyl]-4-fluoro-1-(oxetane-2-carbonyl)pyrrolidin-3-yl]ethanesulfonamide] | 95%
20 | Cc1cccc(-c2cccc(C[C@H]3[C@@H](NS(=O)(=O)C4CC4)C(F)(F)CN3C(=O)N3CCC3)c2F)c1 [Example 426, N-{(2S,3R)-1-(azetidine-1-carbonyl)-4,4-difluoro-2-[(2-fluoro-3′-methyl[1,1′-biphenyl]-3-yl)methyl]pyrrolidin-3-yl}cyclopropanesulfonamide] | 90%
21 | CS(=O)(=O)N[C@@H]1[C@H](Cc2cccc(-c3cccc(F)c3)c2F)N(C(=O)N2CCC2)CC1(F)F [Example 11, N-{(2S,3R)-1-(azetidine-1-carbonyl)-2-[(2,3′-difluoro[1,1′-biphenyl]-3-yl)methyl]-4,4-difluoropyrrolidin-3-yl}methanesulfonamide] | 85%
22 | O=C(C1CCO1)N1C[C@H](F)[C@H](NS(=O)(=O)C2CC2)[C@@H]1Cc1cccc(-c2ccccc2F)c1F (stereo partly drawn) [Example 483, N-[(2S,3R,4S)-2-[(2,2′-difluroo[1,1′-biphenyl]-3-yl)methyl]-4-fluoro-1-(oxetane-2-carbonyl)pyrrolidin-3-yl]cyclopropanesulfonamide] | 108%
23 | Cc1cccc(-c2cccc(C[C@H]3[C@@H](NS(=O)(=O)C4CC4)C(F)(F)CN3C(=O)N3CCC3)c2F)c1F [Example 527, N-{(2S,3R)-1-(azetidine-1-carbonyl)-2-[(2,2′-difluoro-3′-methyl[1,1′-biphenyl]-3-yl)methyl]-4,4-difluoropyrrolidin-3-yl}cyclopropanesulfonamide] | 95%
24 | CCS(=O)(=O)N[C@H]1[C@@H](F)CN(C(=O)C2CCO2)[C@H]1Cc1cccc(-c2cccc(Cl)c2F)c1F (stereo partly drawn) [Example 423, N-[(2S,3R,4S)-2-[(3′-chloro-2,2′-difluoro[1,1′-biphenyl]-3-yl)methyl]-4-fluoro-1-(oxetane-2-carbonyl)pyrrolidin-3-yl]ethanesulfonamide] | 90%
